In EP2439197A1, “Substituted benzimidazole derivatives as melanocortin 4 receptor antagonists” (Santhera Pharmaceuticals (Schweiz) AG, priority 2010, dated 2012):
Where two headings read alike, the source gives them in different places.

Key:
hMC-4R [1] = target: T1, hMC-4R (Homo sapiens, UniProt P32245); experiment: membrane binding assay, competition with fluorescence labeled NDP-alpha-MSH (fluorescence polarization)
T1 construct: expressed in transfected cells; host or cells: HEK293 cells (membrane preparations)
Experimental: A membrane binding assay is used to identify competitive inhibitors of fluorescence labeled NDP-alpha-MSH binding to HEK293 cell membrane preparations expressing human melanocortin receptors.
The test compound or unlabeled NDP-alpha-MSH is dispensed at varying concentrations to a 384 well microtiter plate. Fluorescence labeled NDP-alpha-MSH is dispensed at a single concentration, followed by addition of membrane preparations. The plate is incubated for 5 h at room temperature.
The degree of fluorescence polarization is determined with a fluorescence polarization microplate reader.

hMC-4R [2] = target: T1, hMC-4R; experiment: functional assay, homogeneous membrane based cAMP fluorescence polarization assay; format: biochemical; details: for Emax: read-out: % activation functional assay
[3] = HEK293 cell membrane preparations expressing human melanocortin receptors, read-out: hMC-4R binding assay IC50/µM

T1 sequence (P32245 whole entry): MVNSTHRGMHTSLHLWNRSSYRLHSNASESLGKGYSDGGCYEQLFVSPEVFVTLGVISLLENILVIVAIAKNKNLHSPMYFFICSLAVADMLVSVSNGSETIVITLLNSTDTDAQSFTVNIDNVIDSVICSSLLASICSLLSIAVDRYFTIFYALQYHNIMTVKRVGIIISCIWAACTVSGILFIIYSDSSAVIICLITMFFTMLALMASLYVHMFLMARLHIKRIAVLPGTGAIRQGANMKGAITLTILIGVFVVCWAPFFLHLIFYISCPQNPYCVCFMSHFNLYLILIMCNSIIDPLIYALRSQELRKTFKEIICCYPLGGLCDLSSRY

## CC(C)CCN(CCC(C)C)C(=O)c1ccc2nc(-c3ccc(=O)[nH]c3)n(CC(O)CN3CCCC3)c2c1 (stereo not shown) [Example 1]
hMC-4R [1]
  IC50: < 1 µM
hMC-4R [2]
  Emax: -15%

## CC(C)CCN(CCC(C)C)C(=O)c1ccc2nc(-c3ccc(=O)[nH]c3)n(CC(F)CN3CCCC3)c2c1 (stereo not shown) [Example 2]
hMC-4R [1]
  IC50: < 0.1 µM
hMC-4R [2]
  Emax: -11%

## COc1ccc(-c2nc3ccc(C(=O)N(CCC(C)C)CCC(C)C)cc3n2CC(O)CN2CCCC2)cn1 (stereo not shown) [Example 3]
hMC-4R [1]; [3]
  IC50: < 0.1 µM
hMC-4R [2]; membrane preparations from HEK293 cells, cAMP production, read-out: hMC-4R functional assay EC50/µM
  EC50: 0.1 to 1 µM
hMC-4R [2]
  Emax: -25%

## CC(C)CCN(CCC(C)C)C(=O)c1ccc2nc(-c3ncco3)n(CC(O)CN3CCCC3)c2c1 (stereo not shown) [Example 4]
hMC-4R [1]
  IC50: < 0.1 µM
hMC-4R [2]
  EC50: < 0.1 µM
  Emax: -28%

## COc1cc(C2(c3nc4ccc(C(=O)N(CCC(C)C)CCC(C)C)cc4n3CCCN3CCCC3)CC2)ccn1 [Example 5]
hMC-4R [1]
  IC50: < 1 µM
hMC-4R [2]
  Emax: -6%

## COc1ccc(C2(c3nc4ccc(C(=O)N(CCC(C)C)CCC(C)C)cc4n3CCCN3CCCC3)CC2)cn1 [Example 6]
hMC-4R [1]
  IC50: < 1 µM
hMC-4R [2]
  Emax: -11%

## CC(C)CCN(CCC(C)C)C(=O)c1ccc2nc(N3CCN(C)CC3)n(CCCN3CCCC3)c2c1 [Example 7]
hMC-4R [1]
  IC50: 1 to 10 µM
hMC-4R [2]
  Emax: -4%

## CC(C)CCN(CCC(C)C)C(=O)c1ccc2nc(CN3CCN(C)CC3)n(CCCN3CCCC3)c2c1 [Example 8]
hMC-4R [1]; [3]
  IC50: < 0.1 µM
hMC-4R [2]
  Emax: -6%

## CC(C)CCN(CCC(C)C)C(=O)c1ccc2nc(CN3CCN(CCO)CC3)n(CCCN3CCCC3)c2c1 [Example 9]
hMC-4R [1]
  IC50: < 0.1 µM
hMC-4R [2]
  Emax: -9%

## CC(C)CCN(CCC(C)C)C(=O)c1ccc2nc(CN3CCN(C(C)C)CC3)n(CCCN3CCCC3)c2c1 [Example 10]
hMC-4R [1]
  IC50: < 1 µM
hMC-4R [2]
  Emax: 0%

## CC(C)CCN(CCC(C)C)C(=O)c1ccc2nc(C3CCN(C(=O)OC(C)(C)C)CC3)n(CCCN3CCCC3)c2c1 [Example 11]
hMC-4R [1]
  IC50: < 0.1 µM
hMC-4R [2]
  EC50: < 0.1 µM
  Emax: -33%

## CC(C)CCN(CCC(C)C)C(=O)c1ccc2nc(C3CCN(C(=O)OC(C)(C)C)CC3)n(CCCN3CCCC3C)c2c1 (stereo not shown) [Example 12]
hMC-4R [1]
  IC50: < 0.1 µM
hMC-4R [2]
  EC50: < 0.1 µM
  Emax: -40%

## CC(C)CCN(CCC(C)C)C(=O)c1ccc2nc(CC3CCN(C(=O)OC(C)(C)C)CC3)n(CCCN3CCCC3)c2c1 [Example 13]
hMC-4R [1]
  IC50: < 0.1 µM
hMC-4R [2]
  Emax: -7%

## CC(C)CCN(CCC(C)C)C(=O)c1ccc2nc(CC3CCN(CCO)CC3)n(CCCN3CCCC3)c2c1 [Example 14]
hMC-4R [1]
  IC50: < 0.1 µM
hMC-4R [2]
  Emax: -18%

## CC(C)CCN(CCC(C)C)C(=O)c1ccc2nc(CC3CCN(C4COC4)CC3)n(CCCN3CCCC3)c2c1 [Example 15]
hMC-4R [1]
  IC50: < 0.1 µM
hMC-4R [2]
  Emax: -11%

## CC(C)CCN(CCC(C)C)C(=O)c1ccc2nc(C3CN(C(=O)OC(C)(C)C)C3)n(CCCN3CCCC3)c2c1 [Example 16]
hMC-4R [1]; [3]
  IC50: < 0.1 µM
hMC-4R [2]
  Emax: -9%

## CC(C)CCN(CCC(C)C)C(=O)c1ccc2nc([C@H]3CC[C@H](N(C)C)CC3)n(CCCN3CCCC3)c2c1 [Example 17]
hMC-4R [1]
  IC50: < 0.1 µM
hMC-4R [2]
  Emax: -6%

## CC(C)CCN(CCC(C)C)C(=O)c1ccc2nc([C@H]3CC[C@@H](N(C)C)CC3)n(CCCN3CCCC3)c2c1 [Example 18]
hMC-4R [1]
  IC50: < 0.1 µM
hMC-4R [2]
  Emax: -19%

## CCCCN(CCCC)C(=O)c1ccc2nc(CC3CCN(C(=O)OC(C)(C)C)CC3)n(CCCN3CCCC3)c2c1 [Example 19]
hMC-4R [1]
  IC50: < 0.1 µM
hMC-4R [2]
  EC50: < 0.1 µM
  Emax: -33%

## CCCCN(CCCC)C(=O)c1ccc2nc(CC3CCN(C4COC4)CC3)n(CCCN3CCCC3)c2c1 [Example 20]
hMC-4R [1]
  IC50: < 1 µM
hMC-4R [2]
  Emax: 0%

## CC(C)CCN(CCC(C)C)C(=O)c1ccc2nc(-c3ccc(=O)[nH]c3)n(CCCN3CCCC3)c2c1 [Example 21]
hMC-4R [1]
  IC50: < 0.1 µM
hMC-4R [2]
  Emax: -14%

## CC(C)CCN(CCC(C)C)C(=O)c1ccc2nc(-c3ccc(=O)[nH]c3)n(CCCN3CCCCC3)c2c1 [Example 22]
hMC-4R [1]; [3]
  IC50: < 0.1 µM
hMC-4R [2]
  Emax: -12%

## CC(C)CCN(CCC(C)C)C(=O)c1ccc2nc(C3CCNCC3)n(CCCN3CCCC3)c2c1 [Example 23]
hMC-4R [1]
  IC50: < 0.1 µM
hMC-4R [2]
  EC50: < 0.1 µM
  Emax: -39%

## CC(C)CCN(CCC(C)C)C(=O)c1ccc2nc(C3CCN(C)CC3)n(CCCN3CCCC3)c2c1 [Example 24]
hMC-4R [1]
  IC50: < 0.1 µM
hMC-4R [2]
  EC50: < 0.1 µM
  Emax: -44%

## CC(C)CCN(CCC(C)C)C(=O)c1ccc2nc(-c3ccc(=O)[nH]c3)n(CCCN3CCCC3C)c2c1 (stereo not shown) [Example 25]
hMC-4R [1]
  IC50: < 0.1 µM
hMC-4R [2]
  EC50: < 0.1 µM
  Emax: -37%

## CC(C)CCN(CCC(C)C)C(=O)c1ccc2nc(C3CCNCC3)n(CCCN3CCCC3C)c2c1 (stereo not shown) [Example 26]
hMC-4R [1]
  IC50: < 0.1 µM
hMC-4R [2]
  Emax: -12%

## CC(C)CCN(CCC(C)C)C(=O)c1ccc2nc(C3CCN(C)CC3)n(CCCN3CCCC3C)c2c1 (stereo not shown) [Example 27]
hMC-4R [1]; [3]
  IC50: < 0.1 µM
hMC-4R [2]
  Emax: -2%

## CC(C)CCN(CCC(C)C)C(=O)c1ccc2nc(CC3CCNCC3)n(CCCN3CCCC3)c2c1 [Example 28]
hMC-4R [1]; [3]
  IC50: < 0.1 µM
hMC-4R [2]
  Emax: -6%

## CC(C)CCN(CCC(C)C)C(=O)c1ccc2nc(CC3CCN(C)CC3)n(CCCN3CCCC3)c2c1 [Example 29]
hMC-4R [1]
  IC50: < 0.1 µM
hMC-4R [2]
  Emax: -10%

## CC(C)CCN(CCC(C)C)C(=O)c1ccc2nc(-c3cnc(O)nc3)n(CCCN3CCCC3)c2c1 [Example 30]
hMC-4R [1]
  IC50: < 1 µM
hMC-4R [2]
  Emax: -12%

## CC(C)CCN(CCC(C)C)C(=O)c1ccc2nc(C3CNC3)n(CCCN3CCCC3)c2c1 [Example 31]
hMC-4R [1]
  IC50: < 0.1 µM
hMC-4R [2]
  EC50: 0.1 to 1 µM
  Emax: -32%

## CC(C)CCN(CCC(C)C)C(=O)c1ccc2nc(C3CN(C)C3)n(CCCN3CCCC3)c2c1 [Example 32]
hMC-4R [1]
  IC50: < 0.1 µM
hMC-4R [2]
  EC50: < 0.1 µM
  Emax: -18%

## COc1cc(Cc2nc3ccc(C(=O)N(CCC(C)C)CCC(C)C)cc3n2CCCN2CCCC2)ccn1 [Example 33]
hMC-4R [1]
  IC50: < 0.1 µM
hMC-4R [2]
  Emax: 0%

## CC(C)CCN(CCC(C)C)C(=O)c1ccc2nc(C3CNC(=O)C3)n(CCCN3CCCC3)c2c1 (stereo not shown) [Example 34]
hMC-4R [1]
  IC50: < 0.1 µM
hMC-4R [2]
  Emax: -10%

## CC(C)CCN(CCC(C)C)C(=O)c1ccc2nc(C3CCC(=O)NC3)n(CCCN3CCCC3)c2c1 (stereo not shown) [Example 35]
hMC-4R [1]
  IC50: < 1 µM
hMC-4R [2]
  Emax: -11%

## CC(C)CCN(CCC(C)C)C(=O)c1ccc2nc(C3CCN(C)C(=O)C3)n(CCCN3CCCC3)c2c1 (stereo not shown) [Example 36]
hMC-4R [1]
  IC50: < 1 µM
hMC-4R [2]
  Emax: -5%

## CC(C)CCN(CCC(C)C)C(=O)c1ccc2nc(C3CCC(=O)N(C)C3)n(CCCN3CCCC3)c2c1 (stereo not shown) [Example 37]
hMC-4R [1]
  IC50: < 1 µM
hMC-4R [2]
  Emax: -2%

## CCCCN(CCCC)C(=O)c1ccc2nc(CC3CCNCC3)n(CCCN3CCCC3)c2c1 [Example 38]
hMC-4R [1]
  IC50: < 0.1 µM
hMC-4R [2]
  Emax: -5%

## CCCCN(CCCC)C(=O)c1ccc2nc(CC3CCN(C)CC3)n(CCCN3CCCC3)c2c1 [Example 39]
hMC-4R [1]
  IC50: < 0.1 µM
hMC-4R [2]
  Emax: -8%
